We go through 1 molecule from patent publication US12473250B2, “Molecular design of new antibiotics and antibiotic adjuvants against MCR strains” (priority 2019, dated 2025).

The test has as its system Gram positive bacteria (SA and MRSA strains). As to the kind of experiment: Antimicrobial effect on Gram positive bacteria (Table 8). Particulars: compound alone. Set-up: key to antimicrobial effect on Gram positive bacteria: MIC (concentration giving 99% inhibition), concentrations in μg. The test is classed as cell-based. As for the experimental part:
MIC experiments of the antimicrobial agents were determined by a modified broth microdilution method in accordance with the Clinical and Laboratory Standards Institute (CLSI) guidelines using 96 well culture plates. In brief, serial dilutions of all plates were prepared at different concentrations (μg). The inoculum suspension was prepared by adding isolated colonies from a 18-20 hours on TSA plate into phosphate buffer (0.31 mM, pH 7.2) or in water for injection (BBraun) and adjusting the suspension to a turbidity equivalent to 0.5 McFarland Standard. Each well contained a final bacterial concentration of approximately 5×10^5 colony forming units (CFU)/mL. The plate was covered and incubated at 35° C. for 24 hours. […] For the microdilution plates, turbidity in wells can be measured at OD600 using TECAN infinite M200Pro. MIC was determined as […] concentration that gives a 99 percent inhibition.
The antimicrobial activity of the inventive combination was also tested against Gram positive bacteria, including the multi-drug resistant strains, such as MRSA. […] This means the combination of LC100/LC101 with colistin has broad antimicrobial spectrum, being active against both Gram positive and Gram negative bacteria.

On to `CCN(CC)CCCCOc1ccc(/C=C/C(=O)c2ccc(OCCCCN(CC)CC)c(CC=C(C)C)c2O)cc1` [LC100], for which, for the setting “in words”, the “activity against Gram positive strains” value is listed as “good activity”. Besides, the “antimicrobial effect on Gram positive bacteria” value (“antimicrobial effect” for short) (strain MRSA ATCC 43300) turned out to be 3.125; the “antimicrobial effect” value (strain MRSA ATCC 700699) is on record as 3.125; the “antimicrobial effect” value (strain MRSA DM 21455) was found to be 3.125; the “antimicrobial effect” value (strain SA ATCC 6538) stood at 3.125; the “antimicrobial effect” value (strain SA ATCC 29213) came to 3.125; the “antimicrobial effect” value (strain SA DM 4400R) is recorded as 3.125.
